Source: patent publication US10011868B2, “Reactivity-dependent and interaction-dependent PCR” (priority 2009, dated 2018)
Read-outs that look alike come from different tables or passages of the source. Numbered stars: 1 amine (or outer) side, 2 acyl side, 3 side chain; on linkers, the order of the positions; unused ones are H or OH. Peptide text beside a SMILES is read from it. CO = O=C([*:1])[*:2]

Experiments:
[1] = target: carbonic anhydrase II (CA) (Bos taurus, UniProt P00921); settings: cited from earlier work
Sequence of carbonic anhydrase II (CA) (P00921 whole entry): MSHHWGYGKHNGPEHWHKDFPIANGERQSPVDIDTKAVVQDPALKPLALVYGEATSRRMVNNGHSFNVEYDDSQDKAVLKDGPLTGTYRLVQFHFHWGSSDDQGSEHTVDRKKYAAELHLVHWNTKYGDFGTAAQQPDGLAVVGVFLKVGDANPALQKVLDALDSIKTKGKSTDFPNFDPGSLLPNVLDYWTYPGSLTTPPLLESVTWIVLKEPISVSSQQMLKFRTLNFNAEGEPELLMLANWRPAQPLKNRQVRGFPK

carbonic anhydrase [2] = target: T1, carbonic anhydrase (Bos taurus, UniProt P00921); experiment: Carbonic anhydrase enzymatic activity inhibition, 4-nitrophenyl acetate substrate (FIG. 25a,b); type: biochemical, bovine; settings: 37° C.; read-out: Ki for CA
T1 sequence (P00921 whole entry): as above

carbonic anhydrase [3] = target: T1, carbonic anhydrase; experiment: ID-PCR model selection, ligand library x target library in one solution (FIG. 22); type: binding, bovine; settings: DNA-linked ligand; relative to control lacking proteins; 261 ligand x 259 target sequences
Method: (§1) Finally, we tested the ability of ID-PCR to simultaneously evaluate all possible combinations of multiple ligands and multiple targets in a single solution. […] The negative control ligand and target were conjugated to libraries of 256 different sequence tags. The resulting solution therefore contained equimolar quantities of each of 261 ligand sequences and each of 259 target sequences, collectively representing 67,599 possible ligand-target sequence combinations. A control sample was prepared identically except using DNA not conjugated to any protein targets. Both samples were subjected to ID-PCR followed by high-throughput DNA sequencing.
(§2) A control primer extension reaction was also performed using the same pool of ligand strands, but with a pool of target strands lacking conjugated proteins (1, 1i, 1j, 60 pM each and 1k, 9.8 nM). Adapter sequences required for Illumina sequencing, as well as barcodes identifying the input and selection experiments, were installed by PCR with either Primer C (input control) or Primer D (selection) and Primer E. The appropriate cycle number for each reaction was determined by qPCR evaluation, such that preparative PCR reactions (50 μL total volume) were stopped in the exponential amplification phase in order to minimize dynamic compression during PCR. […]

streptavidin (1a-SA) = target: T2, streptavidin (1a-SA) (Streptomyces avidinii, UniProt P22629); experiment: ID-PCR on single target-ligand pair, qPCR threshold cycle (FIG. 20b); type: binding; settings: with 1a-SA, Klenow extension and qPCR
T2 construct: 5'-carboxylate ssDNA oligonucleotide 1a (Cy3-labelled), chemically coupled via NHS ester; purchased New England Biolabs
T2 sequence (P22629 25-183): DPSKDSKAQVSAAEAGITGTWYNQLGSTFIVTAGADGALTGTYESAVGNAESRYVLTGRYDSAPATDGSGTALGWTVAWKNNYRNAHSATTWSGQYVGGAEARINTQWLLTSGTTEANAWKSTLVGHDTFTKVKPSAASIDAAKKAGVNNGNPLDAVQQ
Method: We investigated whether binding between a small molecule and a protein could replace a covalent linkage in a DNA hairpin and support extension and PCR. […] The target and ligand strands shared a 6-nt complementary region.
An extension mixture consisting of 10×NEB Buffer 2 (2 μL), dNTPs (660 pmol each in 2 μL water), and the target strand (200 fmol in 9 μL PBS) was incubated at 37° C. for 5 minutes. The appropriate ligand strand (200 fmol in 2 μL water) was added and the reaction mixture was incubated at 37° C. for 15 minutes. Klenow fragment exo^− (2.5 U in 5 μL of 1×NEB Buffer 2, New England Biolabs) was added. The primer extension reaction (final volume=20 μL) was incubated at 37° C. for 15 minutes. The polymerase was inactivated by heating to 75° C. for 20 minutes.
For each 25 μL qPCR reaction, 12.5 μL of 2×SYBR Green iQ Supermix (Bio-Rad) was combined with 1 μL of 10 μM Primer A, 1 μL of 10 μM Primer B, and 9.5 μL Milli Q H2O. […] Quantitative PCR was performed using a CFX-96 Real-Time System with a C1000 Thermal Cycler (Bio-Rad). […]
All primer extension and qPCR reactions were performed as described above, except that free ligand (200 pmol in 2 μL 10% DMSO) or DMSO (2 μL of 10% DMSO) was added when appropriate. […] Unless otherwise noted, PCR products were analyzed by PAGE on 10% TBE gels at 200 V for 25 minutes staining with ethidium bromide and imaging on a Chemilmager (AlphaInnotech). […]

streptavidin [4] = target: T3, streptavidin (Streptomyces avidinii, UniProt P22629); experiment: Gel shift of 2b-desthiobiotin/streptavidin complex (FIG. 25c); type: binding; settings: duplex 10 nM, read-out: apparent Kd for streptavidin
T3 construct: 5'-carboxylate ssDNA oligonucleotide 1a (Cy3-labelled), chemically coupled via NHS ester; purchased New England Biolabs
T3 sequence (P22629 25-183): as above
Method: The DNA-ligand conjugate 2b-desthiobiotin was hybridized to a complementary 20-mer carrying a Cy3 label at the 3′-end. The resulting duplex (10 nM) was incubated with increasing concentrations of streptavidin in binding buffer (145 mM NaCl, 10 mM Tris/HCl, 10 mM MgCl2, 7 mM Na2PO4, 1.9 mM KCl, 1 mM dithiothreitol, pH 7.4), for 1 h and analyzed on a 20% TBE polyacrylamide gel. The appearance of a higher molecular weight band indicated formation of a streptavidin-2b-desthiobiotin complex. The apparent Kd was determined from the streptavidin concentration for which the bands corresponding to free DNA and to the complex were of approximately equal intensity.

streptavidin (SA) = streptavidin (SA) (Streptomyces avidinii, UniProt P22629); settings: free ligand and streptavidin; cited from earlier work
Sequence of streptavidin (SA) (P22629 25-183): as above

streptavidin [5] = target: T3, streptavidin; experiment: ID-PCR model selection, ligand library x target library in one solution (FIG. 22); type: binding; settings: DNA-linked ligand; relative to control lacking proteins; 261 ligand x 259 target sequences
Method: as §1, §2

[6] = target: 68-nt DNA aptamer that binds daunomycin; settings: DNA aptamer and daunomycin; cited from earlier work
trypsin [7] = target: T4, trypsin (Bos taurus, UniProt P00760); experiment: Trypsin inhibition, fluorogenic substrate Z-Arg-AMC (FIG. 25d); type: biochemical, bovine
T4 sequence (P00760 24-246): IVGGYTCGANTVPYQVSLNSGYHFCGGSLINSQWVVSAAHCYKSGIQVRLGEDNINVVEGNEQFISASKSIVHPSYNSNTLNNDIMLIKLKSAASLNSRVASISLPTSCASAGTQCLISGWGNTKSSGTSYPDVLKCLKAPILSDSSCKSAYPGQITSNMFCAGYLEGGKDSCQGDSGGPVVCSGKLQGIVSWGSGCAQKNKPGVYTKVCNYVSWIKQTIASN
Method: Conditions were adopted from a previously reported protocol.^17 Trypsin (200 fmol) was diluted in 90 μL PBS and was incubated with various concentrations of antipain, a known inhibitor of tryptic proteolysis, or 2e-antipain. The solution was equilibrated at room temperature for 10 minutes and at 35° C. for 5 minutes before addition of the fluorogenic proteolytic substrate Z-Arg-AMC (Bachem) (10 nmol in 10 μL 50% DMSO) (final volume=100 μL).
Equation Used to Fit Ki from Inhibitory Curves (FIGS. 25a, b, d).
The Ki was determined by fitting the following equation to the plot of normalized activity vs. inhibitor concentration: Vo=c+d(([E]tot+[i]tot+Ki)−sqrt((−[E]tot−[I]tot−Ki)^2−4*[E]tot*[I]tot))/(2*[E]tot), where Vo is initial reaction velocity, [E]tot is total enzyme concentration, [I]rot is total inhibitor concentration; c and d are variable parameters for the maximum Vo and for the difference between the minimum and maximum Vo, respectively.

trypsin [8] = target: T4, trypsin; settings: trypsin and antipain; cited from earlier work

For Gly-Leu-CBS [GLCBS], the Ki ([1]; FIG. 20 legend) is given as 9 nM, the Kd ([1]; text b276) is given as 9 nM and the Ki (carbonic anhydrase [2]) is given as 470 nM. The “Enrichment Factor” value (carbonic anhydrase [3]) was 225.

For “2b-desthiobiotin: ligand strand 2 conjugated to desthiobiotin (SEQ 57) (TGGATCGTGATGACTGTCCCGACAAGCATACGTATCTCACT; desthiobiotin conjugated, position not given here)”, the “amplification efficiency in ID-PCR” value (streptavidin (1a-SA)) was “comparable to that of 2a-biotin” and the Kd (streptavidin [4]) was 8 nM.

In the case of `C[C@@H]1NC(=O)N[C@@H]1CCCCCC(=O)O` [desthiobiotin], the Kd (streptavidin (SA)) is listed as 2 nM and the “Enrichment Factor” value (streptavidin [5]) is listed as 3078.

For `COc1cccc2c1C(=O)c1c(O)c3c(c(O)c1C2=O)C[C@@](O)(C(C)=O)C[C@@H]3O[C@H]1C[C@H](N)[C@H](O)[C@H](C)O1` [daunomycin], the Kd [6] is given as 272 nM.

“2s-GLCBS: GLCBS-DNA conjugate (SEQ 78) (DNA TGGATCGTGATGACTGTCCCGACAAGGATCCGTATCTCACT; DNA, backbone and methylation of C not given here; GLCBS conjugated at 3' end, further chemistry not fully specified)” showed a Ki (carbonic anhydrase [2]) of 380 nM.

For `CC(C)[C@H](NC(=O)[C@H](CCCNC(=N)N)NC(=O)N[C@@H](Cc1ccccc1)C(=O)O)C(=O)N[C@H](C=O)CCCNC(=N)N` [antipain] ({Phe-CO}-Arg-Val-Arg-aldehyde), the Ki (trypsin [7]) is given as 39.5 nM and the Ki (trypsin [8]) is given as 100 nM.

In the case of `O=C(O)CCCC[C@@H]1SC[C@@H]2NC(=O)N[C@@H]21` [biotin], the “Enrichment Factor” value (streptavidin [5]) is reported as 860.
